Assay results: article PMC7822874, “Chemoprotective antimalarials identified through quantitative high-throughput screening of Plasmodium blood and liver stage parasites” (Scientific Reports, 2021)
Read-outs that look alike come from different tables or passages of the source.

Experiments:
in vitro = details: human
[1] = system: Plasmodium falciparum Dd2 asexual blood stage parasites; assay: microbe, parasite or virus in culture; design: species or system Plasmodium falciparum Dd2 in human erythrocytes; single determination (one 11-point concentration-response curve); details: Plasmodium falciparum, DD2, Erythrocyte, 72 h; read-out: AC50
[2] = system: luciferase-expressing P. berghei liver stage parasites in HepG2 cells; assay: Inhibition of liver-stage development assay (ILSDA), Method 2 (WRAIR, 96-well); type: cell-based, Plasmodium berghei; details: for AC50: Plasmodium berghei
[3] = system: P. berghei-ANKA-GFP-LucCON liver stage parasites in HepG2-A16-CD81EGFP cells; assay: P. berghei liver stage Pb-Luc assay, Method 1 (UCSD, 1536-well); type: cell-based, Plasmodium berghei; details: for activity at 1 µM / activity at 3 µM: 48 h, average of 2 wells on a 1536 well plate; for activity at 1 µM: 1 uM (compounds provided at 10 mM); for activity at 3 µM: 3 uM (compounds provided at 10 mM); for Max Resp (signal direction of the dose response): Decrease = decreasing P. berghei viability with dose, Increase = increasing signal, Inactive = no dose response
[4] = HepG2-A16-CD81EGFP cells, uninfected
[5] = Method 2, Decrease = decreasing P. berghei viability with dose, Increase = increasing signal, Inactive = no dose response
[6] = HepG2, Method 2, Hill fit, 50% of maximum activity response, read-out: AC50
[7] = HepG2, Method 2, log10 of molar AC50 from Hill fit, read-out: Log AC50 (converted)
[8] = Plasmodium berghei, column 11, read-out: Pb-Luc (P. berghei liver stage), % of control, lower concentration, first repeat
[9] = Plasmodium berghei, column 12, read-out: Pb-Luc (P. berghei liver stage), % of control, lower concentration, second repeat
[10] = Plasmodium berghei, column 8, read-out: Pb-Luc (P. berghei liver stage), % of control, higher concentration, first repeat
[11] = Plasmodium berghei, column 9, read-out: Pb-Luc (P. berghei liver stage), % of control, higher concentration, second repeat
[12] = Plasmodium berghei, Method 1, Hill fit, 50% of maximum activity response, read-out: AC50
[13] = Plasmodium berghei, Method 1, log10 of molar AC50 from Hill fit, read-out: Log AC50 (converted)

SMILES: CC(C)(C)C1CCc2[nH]c3ccccc3c(=O)c2C1 (centres unmarked) [MLS000109039-01]
- viability at 48 h, 1 µM (in vitro; [4]): 89%
- viability at 48 h, 3 µM (in vitro; [4]): 88%
- AC50 [1]: 1880 nM
- Max Resp (signal direction of the dose response) [2, 5]: Decrease
- AC50 [2, 6]: 282 nM
- AC50 [2, 7]: 282 nM

SMILES: CCOC(=O)c1c[nH]c2c3c(ccc2c1=O)CCCC3 [MLS000085191-01]
- viability at 48 h, 1 µM (in vitro; [4]): 98%
- viability at 48 h, 3 µM (in vitro; [4]): 106%
- Max Resp (signal direction of the dose response) [2, 5]: Increase

SMILES: CCCCN(CC)CCNC(=O)c1cc2c(-c3ccc(Cl)cc3)nn(C)c2s1 [NCGC00108995]
- viability at 66 h (in vitro; [4]): 102%
- Max Resp (signal direction of the dose response) [2, 5]: Inactive

SMILES: COc1ccc(C2=Nn3c([n+](C)c4ccccc43)SC2)cc1 [MLS000717833-01]
- viability at 48 h, 1 µM (in vitro; [4]): 83%
- viability at 48 h, 3 µM (in vitro; [4]): 63%
- Max Resp (signal direction of the dose response) [2, 5]: Decrease
- AC50 [2, 6]: 11200 nM
- AC50 [2, 7]: 11200 nM

SMILES: Cc1ccc(CSCc2ccc(C(=O)NC3CC3)o2)cc1 [MLS001031023-01]
- viability at 48 h, 1 µM (in vitro; [4]): 93%
- viability at 48 h, 3 µM (in vitro; [4]): 88%
- AC50 [1]: 2660 nM
- Max Resp (signal direction of the dose response) [2, 5]: Decrease
- AC50 [2, 6]: 224 nM
- AC50 [2, 7]: 224 nM

SMILES: O=C(CCc1ccccc1)NC(c1cccs1)c1cc(Cl)c2cccnc2c1O (centres unmarked) [MLS000703748-01]
- viability at 48 h, 1 µM (in vitro; [4]): 113%
- viability at 48 h, 3 µM (in vitro; [4]): 51%
- Max Resp (signal direction of the dose response) [2, 5]: Inactive

SMILES: CCn1cc(C(=O)O)c(=O)c2cnc(N3CCN(/C(S)=N/c4ccccc4)CC3)nc21 [MLS000777921-01]
- viability at 48 h, 1 µM (in vitro; [4]): 113%
- viability at 48 h, 3 µM (in vitro; [4]): 102%
- AC50 [1]: 3760 nM
- Max Resp (signal direction of the dose response) [2, 5]: Decrease
- AC50 [2, 6]: 2000 nM
- AC50 [2, 7]: 2000 nM
- activity at 1 µM [3, 8]: 25%
- activity at 1 µM [3, 9]: 24%
- activity at 3 µM [3, 10]: 3.25%
- activity at 3 µM [3, 11]: 2.6%

SMILES: O=C1c2ccccc2-n2c1nc1ccccc1c2=O [NCGC00160337]
- viability (in vitro): 87%
- Max Resp (signal direction of the dose response) [2]: Increase

SMILES: c1ccc(CNc2nc(NCc3ccccc3)c3ccccc3n2)cc1 [NCGC00347066-01]
- viability at 48 h, 1 µM (in vitro; [4]): 83%
- viability at 48 h, 3 µM (in vitro; [4]): 72%
- Max Resp (signal direction of the dose response) [2, 5]: Inactive

SMILES: Cc1ccc2c(c1)[nH]c1c(N3CCN(Cc4ccccc4)CC3)ncnc12 [MLS000041320-01]
- viability at 48 h, 1 µM (in vitro; [4]): 82%
- viability at 48 h, 3 µM (in vitro; [4]): 88%
- Max Resp (signal direction of the dose response) [2, 5]: Inactive
- activity at 1 µM [3, 8]: 23%
- activity at 1 µM [3, 9]: 17%
- activity at 3 µM [3, 10]: 5.3%
- activity at 3 µM [3, 11]: 4%

SMILES: N=c1c2c(n(Cc3ccccc3)c3c1CCC3)CCC2 [MLS000080128-01]
- viability at 48 h, 1 µM (in vitro; [4]): 98%
- viability at 48 h, 3 µM (in vitro; [4]): 74%
- AC50 [1]: 4220 nM
- Max Resp (signal direction of the dose response) [2, 5]: Inactive

SMILES: COc1ccc2nc(C)cc(Nc3ccc(Cl)c(Cl)c3)c2c1 [NCGC00098192-01]
- AC50 [1]: 2660 nM
- Max Resp (signal direction of the dose response) [2, 5]: Decrease
- AC50 [2, 6]: 398 nM
- AC50 [2, 7]: 398 nM
- Max Resp (signal direction of the dose response) ([3]; Method 1): Inactive

SMILES: COc1ccc(-n2nc(C)c([C@@H]3C=C[C@@H](NCc4ccc(F)cc4)C3)c2C)cc1 [NCGC00421412-01]
- AC50 [1]: 1370 nM
- Activity direction (Decrease / Inactive) ([2]; P. berghei liver stage, Method 2, dose response): Decrease
- AC50 ([2]; HepG2, P. berghei liver stage, Method 2, dose response, read-out: AC50): 3980 nM
- AC50 ([2]; HepG2, P. berghei liver stage, Method 2, dose response, read-out: Log AC50 (converted)): 3980 nM
- Max Resp (signal direction of the dose response) ([3]; Method 1): Decrease
- AC50 ([3]; Method 1, Hill fit, 50% of maximum activity response, read-out: AC50): 1780 nM
- Log AC50 (M) ([3]; Method 1, log10 of molar AC50 from Hill fit): -5.750 M
- AC50 [3, 12]: 1580 nM
- AC50 [3, 13]: 1580 nM

SMILES: COc1cccc(NC(=O)c2cccc3c(=O)c4c([nH]c23)CCCC4)c1 [NCGC00119838-01]
- AC50 [1]: 2990 nM
- Max Resp (signal direction of the dose response) [2, 5]: Increase
- Max Resp (signal direction of the dose response) ([3]; Method 1): Inactive

SMILES: CCC(CC)c1cc([C@H]2CN3CC[C@H]2C[C@@H]3CNC(C)=O)nc(-c2ccncc2)n1 [NCGC00394634-01]
- AC50 [1]: 15300 nM
- Max Resp (signal direction of the dose response) [2, 5]: Decrease
- AC50 [2, 6]: 355 nM
- AC50 [2, 7]: 355 nM
- Max Resp (signal direction of the dose response) ([3]; Method 1): Decrease

SMILES: O=C(Nc1ccc(N2CCN(c3ncccc3C(F)(F)F)CC2)nc1)c1cccs1 [MLS000862045-01]
- viability at 48 h, 1 µM (in vitro; [4]): 105%
- viability at 48 h, 3 µM (in vitro; [4]): 95%
- Max Resp (signal direction of the dose response) [2, 5]: Decrease
- AC50 [2, 6]: 447 nM
- AC50 [2, 7]: 447 nM

SMILES: COc1ccc2nc(C[C@@H]3C[C@@H](C(C)C)[C@H](CNCc4ccccc4O)C=C3C)[nH]c2n1 [NCGC00391280-01]
- AC50 [1]: 243 nM
- Max Resp (signal direction of the dose response) [2, 5]: Inactive
- AC50 [3, 12]: 1580 nM
- AC50 [3, 13]: 1580 nM

SMILES: Cc1ccc(Nc2nc(NCCO)c3ccccc3n2)cc1C [NCGC00273600-02]
- viability at 48 h, 1 µM (in vitro; [4]): 96%
- viability at 48 h, 3 µM (in vitro; [4]): 82%
- Max Resp (signal direction of the dose response) [2, 5]: Decrease
- AC50 [2, 6]: 562 nM
- AC50 [2, 7]: 562 nM

SMILES: Cc1ccc(C(=O)Nc2nc(-c3ccccn3)cs2)cc1[S+](=O)([O-])N1CCOCC1.O=C(O)C(F)(F)F [NCGC00345210-01]
- viability at 48 h, 1 µM (in vitro; [4]): 73%
- viability at 48 h, 3 µM (in vitro; [4]): 31%
- Max Resp (signal direction of the dose response) [2, 5]: Inactive

SMILES: Cc1cccc(N2CCN(c3nc4ccccc4c4nnc(C)n34)CC2)c1C [NCGC00107423-01]
- AC50 [1]: 5310 nM
- Max Resp (signal direction of the dose response) [2, 5]: Decrease
- AC50 [2, 6]: 89 nM
- AC50 [2, 7]: 89.1 nM
- Max Resp (signal direction of the dose response) ([3]; Method 1): Inactive

SMILES: O=C(NC1CC1)c1ccc(CSCc2ccccc2Cl)o1 [MLS001030935-01]
- viability at 48 h, 1 µM (in vitro; [4]): 111%
- viability at 48 h, 3 µM (in vitro; [4]): 100%
- Max Resp (signal direction of the dose response) [2, 5]: Decrease
- AC50 [2, 6]: 200 nM
- AC50 [2, 7]: 200 nM
- activity at 1 µM [3, 8]: 16%
- activity at 1 µM [3, 9]: 12%
- activity at 3 µM [3, 10]: 1%
- activity at 3 µM [3, 11]: 9%

SMILES: CCOC(=O)c1[nH]c(C)c(CCC(=O)N2CCN(c3cccc(C)c3C)CC2)c1C [NCGC00134568-01]
- AC50 [1]: 1330 nM
- Max Resp (signal direction of the dose response) [2, 5]: Decrease
- AC50 [2, 6]: 562 nM
- AC50 [2, 7]: 562 nM
- Max Resp (signal direction of the dose response) ([3]; Method 1): Inactive

SMILES: COc1cc(/C=C(\C#N)c2nc3ccccc3[nH]2)ccc1OCc1ccc(F)cc1 [NCGC00102606-01]
- AC50 [1]: 5310 nM
- Max Resp (signal direction of the dose response) [2, 5]: Decrease
- AC50 [2, 6]: 794 nM
- AC50 [2, 7]: 794 nM
- Max Resp (signal direction of the dose response) ([3]; Method 1): Decrease
- AC50 [3, 12]: 1410 nM
- AC50 [3, 13]: 1410 nM

SMILES: N=c1c2ccccc2nnn1-c1ccc(C(F)(F)F)cc1 [MLS000707013-01]
- viability at 48 h, 1 µM (in vitro; [4]): 91%
- viability at 48 h, 3 µM (in vitro; [4]): 101%
- AC50 [1]: 3760 nM
- Max Resp (signal direction of the dose response) [2, 5]: Decrease
- AC50 [2, 6]: 708 nM
- AC50 [2, 7]: 708 nM
- activity at 1 µM [3, 8]: 23%
- activity at 1 µM [3, 9]: 19%
- activity at 3 µM [3, 10]: 12%
- activity at 3 µM [3, 11]: 10%

SMILES: Cc1ccc(-c2nn3c(=O)c4c([nH]c3c2C)CCCC4)cc1 [MLS000029798-01]
- AC50 [1]: 2990 nM
- Max Resp (signal direction of the dose response) [2, 5]: Decrease
- AC50 [2, 6]: 282 nM
- AC50 [2, 7]: 282 nM
- activity at 1 µM [3, 8]: 15%
- activity at 1 µM [3, 9]: 11%
- activity at 3 µM [3, 10]: 6.61%
- activity at 3 µM [3, 11]: 8%

SMILES: Cc1ccc(C(=O)Nc2nc(-c3ccccn3)cs2)cc1S(=O)(=O)N1CCOCC1 [MLS002157637-01]
- viability at 48 h, 1 µM (in vitro; [4]): 92%
- viability at 48 h, 3 µM (in vitro; [4]): 55%
- Max Resp (signal direction of the dose response) [2, 5]: Inactive
